From EP0313703A1, “Use of 24,25-dihydroxycholecalciferole in the treatment of urinary calculus” (KUREHA KAGAKU KOGYO KABUSHIKI KAISHA, priority 1987, dated 1989)

What was measured:
male ICR mice = test: Acute oral toxicity, single dose, 2 weeks observation; type: in vivo; settings: 150 mg/kg p.o.
Method: (§1) After dissolving the present substance in ethanol, the thus formed solution was diluted by a triglyceride of a fatty acid of 8 to 10 carbon atoms so that the concentration of ethanol became 2 %. The thus formed solution was orally (p.o.) administered to each of 10 male ICR mice (age of 6 weeks, body weight of 25±3 g) at dose of 150 mg/kg. […] Accordingly, the acute oral LD₅₀ of the present substance is not less than […] and the present substance can be said to be extremely safe.

[1] = as above; type: in vivo, mice; settings: mouse, in vivo, po, male ICR mice; read-out: acute oral LD₅₀
Method: as §1

renal calculus = test: Inhibition of formation of renal calculus in model rats (ethylene glycol + 1α-hydroxycholecarciferol); type: in vivo, Wistar rats; settings: 10 µg/kg/1 ml/day p.o., four weeks
Method: As the test animals for renal calculus, the following rats were used.
Twenty male Wistar rats (age of 8 weeks and body weight of about 200 g) were allowed to take a water containing 0.5 % of ethylene glycol freely, and a mixture of 0.5 µg of 1α-hydroxycholecarciferol and 0.1 ml of triglyceride of a fatty acid of 8 to 10 carbon atoms was forcibly and orally administered by a stomach tube every other day for four weeks, thereafter being used as the test animals.
24R,25-(OH)₂-D₃ in the triglyceride of a fatty acid of 8 to 10 carbon atoms containing 2 % of ethanol was forcibly and orally administered to each of the test animals at a dose of 10µg/kg/1 ml/day by a stomach tube, and to each animals of the control group, the triglyceride of a fatty acid of 8 to 10 carbon atoms was administered in the same manner as above.
The animals were slaughtered after four weeks from the first administration, and the kidney of the animal was extirpated therefrom after the exsanguination and immediately photographed by soft X-ray. Furhter the cross section of the extirpated kidney containing papilla was observed by naked eyes.

male or female ICR mice = test: 30-day repeated oral administration: body weight and histopathology; type: in vivo; settings: 10, 100 or 1000 µg/kg daily p.o. for 30 days
Method: After dissolving 24R,25-(OH)₂-D₃, at a prescribed concentration, into the triglyceride of a fatty acid of 8 to 10 carbon atoms containing 1 % of ethanol, the solution was forcibly and orally administered to each of the three groups of the male or female ICR mice continuously for 30 days at a daily dose of 10, 100 or 1000 µg/kg.
The examined organs are as follows: brain, heart, lung, liver, kidney, adrenal, spleen, pancreas, thyroid, hypophysis, thymus, mesentric lymph node, testis, ovary, uterus, stomach, small intestines (jejunum, ileum and duodenum), large intestines (colon and cecum), eyeball, submandibular gland, urinary bladder, backskin, muscle, sternum, marrow of sternum, femur and marrow of femur.

SMILES | survival / toxic symptoms (male ICR mice; 10 male ICR mice, observed for 2 weeks) | biochemical examination of the blood, autopsy and histopathological examination versus control animals (male ICR mice; male ICR mice, after slaughter at 2 weeks) | LD50 at 336 h [1] [mg/kg] | calculi in the pelvis and the papilla of the kidney, observation by naked eyes (renal calculus; 10 rats, control group: 8 cases among 10 rats) | radial deposition of crystals in the renal parenchyma, observation by naked eyes (renal calculus; 10 rats, remarkably found in the control group) | formation of calculus, soft X-ray photograph of the kidney (renal calculus; compared with control rats) | body weight change (growth curve) (male or female ICR mice) | histopathological examination of organs (hematoxylin·eosin) (male or female ICR mice)
C=C1CC[C@H](O)C/C1=C/C=C1\CCC[C@]2(C)[C@@H]([C@H](C)CCC(O)C(C)(C)O)CC[C@@H]12 (some centres unmarked) [the present substance, 24,25-dihydroxycholecalciferol] | all the animals (10 mice) survived without any abnormality | no difference was found | ≥ 100 |  |  |  |  | 
C=C1CC[C@H](O)C/C1=C/C=C1\CCC[C@]2(C)[C@@H]([C@H](C)CC[C@@H](O)C(C)(C)O)CC[C@@H]12 [24R,25-(OH)₂-D₃] |  |  |  | any clear calculus was never recognized | one rat of 10 rats | clear inhibition of the formation of calculus | any significant difference in the body weight change was not recognized | any abnormal findings were not particularly recognized
